Reference: US20210269504A1, “PROTEIN-BASED MICELLES FOR THE DELIVERY OF HYDROPHOBIC ACTIVE COMPOUNDS” (priority 2018, published 2021)

Assay: Loading of 2Yx2A micelles with pyraclostrobin (A280 and HPLC quantification)
Format: physicochemical
Procedure: Pyraclostrobin is a highly water-insoluble organic compound that is also a potent fungicide. […] To determine if pyraclostrobin could be taken up into 2Yx2A micelles, pyraclostrobin was added until it saturated a solution of 100 μL of 11 μM (A280: 0.361) 2Yx2A, evidenced by yellow particulates. The solution was then centrifuged and the supernatant was removed and then placed in a fresh tube and centrifuged again. Supernatant removal and centrifugation were repeated 3 times to remove any insoluble pyraclostrobin that has not partitioned into the micelle interior. The solution was then measured with a nanodrop to determine its absorbance at 280 nm resulting in an A280 of 0.502 (+0.141 mAU). Given the pyrene extinction coefficient of 24,000 at A275, this increase in absorbance corresponds to the presence of 5.8 μM pyrene. Similarly, the same sample can be analyzed for pyraclostrobin content via HPLC using a calibration curved developed using known pyrene concentrations in acetonitrile (FIG. 18A). For HPLC analysis the protein-pyraclostrobin solution is diluted to ½ of its volume by pyrene to break apart the micelles. Then a known volume is injected onto the HPLC (FIG. 18B). Based on the area of the pyrene peak and volume injected the number of moles and thus the concentration of pyraclostrobin can be determined. Using this method, 7.37 μM pyraclostrobin is encapsulated in 11 μM of protein.
Instead of directly adding pyraclostrobin to a solution of 2Yx2A micelles an alternative method was used to achieve higher loading efficiency. This method involved the co-resuspension of lyophilized protein and pyraclostrobin in THF which is then slowly diluted with buffer. The solution was then centrifuged and the supernatant was removed and then placed in a fresh tube and centrifuged again. Supernatant removal and centrifugation were repeated 3 times to remove any insoluble pyraclostrobin that has not partitioned into the micelle interior. The sample was then lyophilized to remove all solvent and then resuspended in milliQ water. Although no visible precipitation was observed, the sample was centrifuged to remove any unincorporated pyraclostrobin. For HPLC analysis the protein-pyraclostrobin solution is diluted to ½ of its volume by pyrene to break apart the micelles. Then a known volume is injected onto the HPLC. Based on the area of the pyrene peak and volume injected the number of moles and thus the concentration of pyraclostrobin can be determined.

Row | Structure (SMILES) | Concentration encapsulated in micelles (HPLC) (direct addition to 11 μM 2Yx2A) | Amount injected on the HPLC (resuspended in water, without 2Yx2A) | Amount injected on the HPLC (resuspended with 2Yx2A (THF co-resuspension, 100 mM PB pH 5.7)) | Concentration present from increase in A280 (direct addition to 11 μM 2Yx2A, +0.141 absorbance, extinction coefficient 24,000)
1 | COC(=O)N(OC)c1ccccc1COc1ccn(-c2ccc(Cl)cc2)n1 [pyraclostrobin] | 7.37 µM | 0.03 nmol | 0.63 nmol | –
2 | c1cc2ccc3cccc4ccc(c1)c2c34 [pyrene] | – | – | – | 5.8 µM
